{"source": "the supplement of paper PMC11208160"}
{"test": "recombinant barcode read abundance after kanamycin selection (control-corrected) (log10(CPM+1)); higher = more efficient recombination; sequences stand for … in AGTGCAGAGAAAATCGGCCAGTTTTCTCTGCCTGCAGTCCGCATGCCGT…AGATTTATGCAGCGGACTGCCTTTCTCCCAAAGTGATAAACCGGACAGTATCATGGACCGGTTTTCCCGGTAATCCGTATTTGCAAGGTTGGTTTCACT; site = the 11-nt target", "description": "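Pooled E. coli target-specificity screen for the IS621 bridge recombinase. Each library plasmid pairs an 11-nt target (CT core) with a bridge RNA whose target-binding loop (9-nt LTG + 4-nt RTG) is reprogrammed; the rest of the 177-nt WT IS621 bridge RNA scaffold is fixed. The plasmid is co-electroporated with a WT donor plasmid; recombinase is induced with 0.1 mM IPTG and recombinants are selected on kanamycin. Recombinant barcodes are sequenced, converted to CPM, averaged over two biological replicates and corrected by the unselected control CPM. Molecule = full bridge RNA written as DNA: LTG = specificity nt 1-9, RTG = reverse complement of specificity nt 8-11, in the WT scaffold.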"}
{"sequence": "ACCATCACTTGGGTTCTAACCTGTTGCCT (site ACCATCACTAG)", "recombinant barcode read abundance (log10)": 0.79}
{"sequence": "ACCATGTCTTGGGTTCTAACCTGTTGCGG (site ACCATGTCTCC)", "recombinant barcode read abundance (log10)": 1.96}
{"sequence": "ACCATGTCTTGGGTTCTAACCTGTTGCGG (site TAGTACACTGT)", "recombinant barcode read abundance (log10)": 0.171}
{"sequence": "ACCCAAGCTTGGGTTCTAACCTGTTGCCT (site ACCCAAACTAG)", "recombinant barcode read abundance (log10)": 1.14}
{"sequence": "ACCCAAGCTTGGGTTCTAACCTGTTGCCT (site ACCCAACCTAG)", "recombinant barcode read abundance (log10)": 0.199}
{"sequence": "ACCCAAGCTTGGGTTCTAACCTGTTGCCT (site ACCCAAGCTAG)", "recombinant barcode read abundance (log10)": 1.57}
{"sequence": "ACCCAAGCTTGGGTTCTAACCTGTTGCCT (site ACCCAATCTAG)", "recombinant barcode read abundance (log10)": 0.196}
{"sequence": "ACCCAGCCTTGGGTTCTAACCTGTTGCGT (site ACCCAGCCTAA)", "recombinant barcode read abundance (log10)": 0.534}
{"sequence": "ACCCAGCCTTGGGTTCTAACCTGTTGCGT (site ACCCAGCCTAC)", "recombinant barcode read abundance (log10)": 3.25}
{"sequence": "ACCCAGCCTTGGGTTCTAACCTGTTGCGT (site ACCCAGCCTAG)", "recombinant barcode read abundance (log10)": 0.316}
{"sequence": "ACCCAGCCTTGGGTTCTAACCTGTTGCGT (site ACCCAGCCTAT)", "recombinant barcode read abundance (log10)": 2.22}
{"sequence": "ACCCAGTCTTGGGTTCTAACCTGTTGCCA (site AACCAGTCTCG)", "recombinant barcode read abundance (log10)": 0.12}
{"sequence": "ACCCAGTCTTGGGTTCTAACCTGTTGCCA (site ACCCAGTCTTG)", "recombinant barcode read abundance (log10)": 0.961}
{"sequence": "ACCCATTCTTGGGTTCTAACCTGTTGCGT (site ACCCATTCTAC)", "recombinant barcode read abundance (log10)": 2.29}
{"sequence": "ACCCATTCTTGGGTTCTAACCTGTTGCGT (site TAGATAACTCA)", "recombinant barcode read abundance (log10)": 0.0317}
{"sequence": "ACCCCTCCTTGGGTTCTAACCTGTTGCCA (site ACCCCTCCTTG)", "recombinant barcode read abundance (log10)": 1.4}
{"sequence": "ACCCCTCCTTGGGTTCTAACCTGTTGCCA (site ACGCCTCCTTG)", "recombinant barcode read abundance (log10)": 0.228}
{"sequence": "ACCCTAACTTGGGTTCTAACCTGTTGCCG (site ACCCTAACTCG)", "recombinant barcode read abundance (log10)": 2.03}
{"sequence": "ACCCTAACTTGGGTTCTAACCTGTTGCCG (site ACCCTATCTAG)", "recombinant barcode read abundance (log10)": 0.129}
{"sequence": "ACCCTGGCTTGGGTTCTAACCTGTTGCCT (site ACACTGGCTAG)", "recombinant barcode read abundance (log10)": 0.0738}
{"sequence": "ACCCTGGCTTGGGTTCTAACCTGTTGCCT (site ACCCTGGCTAG)", "recombinant barcode read abundance (log10)": 0.816}
{"sequence": "ACCCTGGCTTGGGTTCTAACCTGTTGCCT (site ACGCTGGCTAG)", "recombinant barcode read abundance (log10)": 0.326}
{"sequence": "ACCCTGGCTTGGGTTCTAACCTGTTGCCT (site ACTCTGGCTAG)", "recombinant barcode read abundance (log10)": 0.205}
{"sequence": "ACCGACCCTTGGGTTCTAACCTGTTGCCG (site ACCGACCCTCG)", "recombinant barcode read abundance (log10)": 1.47}
{"sequence": "ACCGACCCTTGGGTTCTAACCTGTTGCCG (site ACCGTCCCTCG)", "recombinant barcode read abundance (log10)": 0.105}
{"sequence": "ACCGATTCTTGGGTTCTAACCTGTTGCAT (site ACCGATTCTAT)", "recombinant barcode read abundance (log10)": 0.696}
{"sequence": "ACCGATTCTTGGGTTCTAACCTGTTGCAT (site GCCGATTCTAG)", "recombinant barcode read abundance (log10)": 0.331}
{"sequence": "ACCGTCCCTTGGGTTCTAACCTGTTGCCG (site ACCGACCCTCG)", "recombinant barcode read abundance (log10)": 0.0364}
{"sequence": "ACCGTCCCTTGGGTTCTAACCTGTTGCCG (site ACCGTCCCTCG)", "recombinant barcode read abundance (log10)": 0.107}
{"sequence": "ACCTCAACTTGGGTTCTAACCTGTTGCCT (site ACATCAACTAG)", "recombinant barcode read abundance (log10)": 0.0721}
{"sequence": "ACCTCAACTTGGGTTCTAACCTGTTGCCT (site ACCTCAACTAG)", "recombinant barcode read abundance (log10)": 0.19}
{"sequence": "ACCTCAACTTGGGTTCTAACCTGTTGCCT (site ACGTCAACTAG)", "recombinant barcode read abundance (log10)": 0.188}
{"sequence": "ACCTCAACTTGGGTTCTAACCTGTTGCCT (site ACTTCAACTAG)", "recombinant barcode read abundance (log10)": 0.215}
{"sequence": "ACCTCTTCTTGGGTTCTAACCTGTTGCTA (site ACCTCTTCTTA)", "recombinant barcode read abundance (log10)": 0.141}
{"sequence": "ACCTCTTCTTGGGTTCTAACCTGTTGCTA (site CGTCGACCTAT)", "recombinant barcode read abundance (log10)": 0.204}
{"sequence": "ACCTGACCTTGGGTTCTAACCTGTTGCCT (site ACCTGACCTAG)", "recombinant barcode read abundance (log10)": 1.31}
{"sequence": "ACCTGACCTTGGGTTCTAACCTGTTGCCT (site ACCTGCCCTAG)", "recombinant barcode read abundance (log10)": 0.0303}
{"sequence": "ACCTGACCTTGGGTTCTAACCTGTTGCCT (site ACCTGGCCTAG)", "recombinant barcode read abundance (log10)": 0.1}
{"sequence": "ACCTGACCTTGGGTTCTAACCTGTTGCCT (site ACCTGTCCTAG)", "recombinant barcode read abundance (log10)": 0.0737}
{"sequence": "ACCTGGCCTTGGGTTCTAACCTGTTGCCT (site ACCTGACCTAG)", "recombinant barcode read abundance (log10)": 0.165}
{"sequence": "ACCTGGCCTTGGGTTCTAACCTGTTGCCT (site ACCTGCCCTAG)", "recombinant barcode read abundance (log10)": 0.147}
{"sequence": "ACCTGGCCTTGGGTTCTAACCTGTTGCCT (site ACCTGGCCTAG)", "recombinant barcode read abundance (log10)": 0.412}
{"sequence": "ACCTGGCCTTGGGTTCTAACCTGTTGCCT (site ACCTGTCCTAG)", "recombinant barcode read abundance (log10)": 0.247}
{"sequence": "ACCTGGGCTTGGGTTCTAACCTGTTGCCT (site AACTGGGCTAG)", "recombinant barcode read abundance (log10)": 0.0365}
{"sequence": "ACCTGGGCTTGGGTTCTAACCTGTTGCCT (site ACCTGGGCTAG)", "recombinant barcode read abundance (log10)": 0.0605}
{"sequence": "ACCTGGGCTTGGGTTCTAACCTGTTGCCT (site AGCTGGGCTAG)", "recombinant barcode read abundance (log10)": 0}
{"sequence": "ACCTGGGCTTGGGTTCTAACCTGTTGCCT (site ATCTGGGCTAG)", "recombinant barcode read abundance (log10)": 0.12}
{"sequence": "ACCTTACCTTGGGTTCTAACCTGTTGCGG (site ACCTTACCTAC)", "recombinant barcode read abundance (log10)": 0.37}
{"sequence": "ACCTTACCTTGGGTTCTAACCTGTTGCGG (site ACCTTACCTCC)", "recombinant barcode read abundance (log10)": 0.617}
{"sequence": "ACCTTACCTTGGGTTCTAACCTGTTGCGT (site ACCTTACCTAC)", "recombinant barcode read abundance (log10)": 1.97}
{"sequence": "ACCTTACCTTGGGTTCTAACCTGTTGCGT (site ACCTTACCTCC)", "recombinant barcode read abundance (log10)": 0.504}
{"sequence": "ACGAAGGCTTGGGTTCTAACCTGTTGCCG (site ACGAAGGCTAG)", "recombinant barcode read abundance (log10)": 0.182}
{"sequence": "ACGAAGGCTTGGGTTCTAACCTGTTGCCG (site ACGAAGGCTCG)", "recombinant barcode read abundance (log10)": 0.691}
{"sequence": "ACGACCGCTTGGGTTCTAACCTGTTGCCT (site ACGAACGCTAG)", "recombinant barcode read abundance (log10)": 0.571}
{"sequence": "ACGACCGCTTGGGTTCTAACCTGTTGCCT (site ACGACCGCTAG)", "recombinant barcode read abundance (log10)": 0.804}
{"sequence": "ACGACCGCTTGGGTTCTAACCTGTTGCCT (site ACGAGCGCTAG)", "recombinant barcode read abundance (log10)": 0.119}
{"sequence": "ACGACCGCTTGGGTTCTAACCTGTTGCCT (site ACGATCGCTAG)", "recombinant barcode read abundance (log10)": 0.245}
{"sequence": "ACGACTACTTGGGTTCTAACCTGTTGCCT (site ACGACTACTAG)", "recombinant barcode read abundance (log10)": 0.128}
{"sequence": "ACGACTACTTGGGTTCTAACCTGTTGCCT (site ACGACTCCTAG)", "recombinant barcode read abundance (log10)": 0.00963}
{"sequence": "ACGACTACTTGGGTTCTAACCTGTTGCCT (site ACGACTGCTAG)", "recombinant barcode read abundance (log10)": 0.113}
{"sequence": "ACGACTACTTGGGTTCTAACCTGTTGCCT (site ACGACTTCTAG)", "recombinant barcode read abundance (log10)": 0.048}
{"sequence": "ACGACTGCTTGGGTTCTAACCTGTTGCCT (site ACGACTACTAG)", "recombinant barcode read abundance (log10)": 0.166}
{"sequence": "ACGACTGCTTGGGTTCTAACCTGTTGCCT (site ACGACTCCTAG)", "recombinant barcode read abundance (log10)": 0.163}
{"sequence": "ACGACTGCTTGGGTTCTAACCTGTTGCCT (site ACGACTGCTAG)", "recombinant barcode read abundance (log10)": 0.738}
{"sequence": "ACGACTGCTTGGGTTCTAACCTGTTGCCT (site ACGACTTCTAG)", "recombinant barcode read abundance (log10)": 0.247}
{"sequence": "ACGAGAGCTTGGGTTCTAACCTGTTGCCT (site ACAAGAGCTAG)", "recombinant barcode read abundance (log10)": 0.92}
{"sequence": "ACGAGAGCTTGGGTTCTAACCTGTTGCCT (site ACCAGAGCTAG)", "recombinant barcode read abundance (log10)": 0.0692}
{"sequence": "ACGAGAGCTTGGGTTCTAACCTGTTGCCT (site ACGAGAGCTAG)", "recombinant barcode read abundance (log10)": 1.11}
{"sequence": "ACGAGAGCTTGGGTTCTAACCTGTTGCCT (site ACTAGAGCTAG)", "recombinant barcode read abundance (log10)": 0.135}
{"sequence": "ACGAGCCCTTGGGTTCTAACCTGTTGCCA (site ACGAGCCCTTG)", "recombinant barcode read abundance (log10)": 0.666}
{"sequence": "ACGAGCCCTTGGGTTCTAACCTGTTGCCA (site ACGCACCCTTG)", "recombinant barcode read abundance (log10)": 0.151}
{"sequence": "ACGAGGACTTGGGTTCTAACCTGTTGCCG (site ACGAAGACTCG)", "recombinant barcode read abundance (log10)": 0.232}
{"sequence": "ACGAGGACTTGGGTTCTAACCTGTTGCCG (site ACGAGGACTCG)", "recombinant barcode read abundance (log10)": 1.09}
